A word on the EC50: it is the concentration that produces a half-maximal response.

Assay [1] has as its target T1, mouse GPR55 (Mus musculus, UniProt Q3UJF0).
T1 construct: expressed in transfected cells; host or cells: HEK293s, transient transfection; membranes prepared
Put plainly: [35S]-GTPγS binding, membranes of HEK293s cells transfected with mouse GPR55. The class given is biochemical. As to conditions: agonist mode; mean ± SEM, at least three experiments; read-out: GPR55 EC50, Mouse. As to the method:
(§1) HEK293s cells were transiently transfected with cDNA encoding rat or mouse CB1 or GPR55 and membranes were prepared as previously described (Ryberg et al. [2007]). In short, agonist activities in [^35S]-GTPγS binding assays were determined by the addition of ligand at 30°C for 45 min in membrane buffer [50 mmol/L NaCl, 5 mmol/L MgCl2, 0.5 mmol/L EDTA, 25 mmol/L HEPES (all Sigma, Gillingham, Dorset, UK); pH 7.4] containing 0.05 μg μL^−1 of membrane protein with 0.01% BSA, 25 μmol/L guanosine 5′-diphosphate (GDP), 100 μmol/L dithiothreitol (DTT), and 0.53 nmol/L [^35S]GTPγS (PerkinElmer) in a final volume of 200 μL. Antagonist assays were performed similarly, with the addition of an EC80 concentration of CP55940 as a nonselective CB1/CB2 agonist in conjunction with the ligand to be tested. Nonspecific binding was determined in the presence of 20 μmol/L unlabeled GTPγS. The reaction was terminated by addition of ice-cold wash buffer (50 mmol/L Tris-HCl, 5 mmol/L MgCl2, 50 mmol/L NaCl; pH 7.4) followed by rapid filtration under vacuum through 96-well B-glass fiber filter plates (PerkinElmer, Waltham, Massachusetts, USA) using a Biomek FX (Beckman Coulter, Bromma, Sweden). The filter plates were dried (30 min at 50°C) before scintillation liquid (PerkinElmer) was added onto the filters and the bound radioactivity was determined using a scintillation counter (Wallac). Data were fitted with a four-parameter logistic fit using the equation y = A + (B − A)/1 + ((C/x)^D), where A is no activation, B is full activation, C is the EC50, and D is the Hill slope. All data were based on at least three independent experiments.

In assay [2] the test system is rat GPR55. Put plainly: [35S]-GTPγS binding, membranes of HEK293s cells transfected with rat GPR55. The class given is biochemical. Conditions: GTPγS binding, GPR55 activation. As to the method:
as §1

For assay [3], the target named is T2, rat GPR55 (Rattus norvegicus, UniProt F1MAK4).
T2 construct: expressed in transfected cells; host or cells: HEK293s, transient transfection; membranes prepared
T2 sequence (F1MAK4 1-319): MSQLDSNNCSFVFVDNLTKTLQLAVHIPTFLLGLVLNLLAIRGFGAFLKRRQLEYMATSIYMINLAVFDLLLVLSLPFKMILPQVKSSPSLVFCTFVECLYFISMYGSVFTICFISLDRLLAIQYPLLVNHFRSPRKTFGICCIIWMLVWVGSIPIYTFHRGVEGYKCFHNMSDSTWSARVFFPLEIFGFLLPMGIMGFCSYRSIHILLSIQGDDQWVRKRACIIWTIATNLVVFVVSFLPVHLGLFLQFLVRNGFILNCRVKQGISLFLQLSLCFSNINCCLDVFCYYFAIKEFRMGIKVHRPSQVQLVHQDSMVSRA
Described as above. Format: biochemical. As to conditions: agonist mode; mean ± SEM, at least three experiments; read-out: GPR55 EC50, Rat. As to the method:
as §1

For assay [4], the system named is anesthetized WT and GPR55−/− mice. The assay can be described thus: Hemodynamic responses (MABP, HR) in anesthetized WT and GPR55−/− mice. The class given is in vivo, mouse. Conditions: O-1602 5–100 ng kg−1 i.v.; WT mice. As to the method: All experiments performed under terminal anesthesia were carried out following approval by Robert Gordon University Animal Ethics Panel. Anesthesia was induced in male SD rats (200–300 g) by sodium pentobarbital [60 mg kg^−1 intraperitoneal (i.p.) injection]. Male/female WT and GPR55^−/− mice (25–35 g) were anesthetized with a mixture of ketamine (120 mg kg^−1) and xylazine (16 mg kg^−1) via i.p. injection. For both species the trachea was cannulated to allow artificial respiration with room air when required (54 strokes min^−1 and tidal volume 1.5 mL 100 g^−1 for rats; 120 strokes min^−1 and tidal volume 100 μL 10 g^−1 for mice) and the left carotid artery and right jugular vein were cannulated for the measurement of arterial BP (MLT844 Physiological Pressure Transducer; AD Instruments, Oxford, UK) and drug administration, respectively. Core temperature was monitored continuously and maintained at 37–38°C with the aid of a Vetcare heated pad (Harvard Apparatus Ltd., Boston, Massachusetts, USA). Anesthesia was monitored by foot pinch reflex and maintained throughout by administration of additional doses of anesthetic (rats: 3–4 mg kg^−1 of sodium pentobarbital salt i.v.; mice: 50 μL 25 g^−1of ketamine/xylazine i.p.) every 40 min, or as required. […] Heart rate (HR) was calculated from the ECG and recorded throughout the entire experimental period. After a stabilization period of approximately 15 min dose–response experiments were carried out as described below.
As a preliminary assessment of the effects of ACEA on arterial BP, a single bolus intravenous dose (3 mg kg^−1; selected from the literature as a dose known to produce a depressor response) was given to anesthetized rats. […] The time interval between drug administrations was 10–15 min to allow BP values to return to predrug values.

T1 sequence (Q3UJF0 whole entry): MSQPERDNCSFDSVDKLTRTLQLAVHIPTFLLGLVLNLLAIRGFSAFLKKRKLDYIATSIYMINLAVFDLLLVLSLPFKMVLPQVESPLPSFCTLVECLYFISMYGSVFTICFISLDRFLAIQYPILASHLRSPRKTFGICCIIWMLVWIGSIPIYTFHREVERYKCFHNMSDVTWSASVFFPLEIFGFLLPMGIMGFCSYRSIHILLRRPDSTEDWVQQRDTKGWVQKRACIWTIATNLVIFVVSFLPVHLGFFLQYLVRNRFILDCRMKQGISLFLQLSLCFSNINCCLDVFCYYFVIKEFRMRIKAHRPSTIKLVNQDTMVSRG

As to `C=C(C)[C@@H]1CCC(C)=C[C@H]1c1c(C)cc(O)cc1O` [O-1602], the EC50 in assay [1] is 12 ± 4 nM; in assay [3], 20 ± 3 nM. For the same compound, the “potency at GPR55 relative to that of ACEA” value in assay [2] is reported as “approximately 5 times”. Further, in assay [4], the “changes in MABP or HR over and above vehicle” value was “did not produce any changes”.

These data come from publication PMC4492759, “Pharmacological profiling of the hemodynamic effects of cannabinoid ligands: a combined in vitro and in vivo approach” (Pharmacology Research & Perspectives, 2015).
